Test results: patent US20240190831A1, “TRANSTHYRETIN STABILIZING COMPOUNDS” (Protego Biopharma, Inc., priority 2021, published 2024)

What was measured:
[1] = In vitro rat liver S9 stability assay (formation of tafamidis); assay type: in vitro ADME; details: rat liver S9, 1 μM test compound, 37° C.
Description: A stability assay in liver S9 (rat or human) was used to evaluate the ability of a compound provided herein to convert to an active TTR stabilizer. The test compound was added to liver S9 and incubated at 37° C. in a water bath at a concentration of 1 μM. At each time point (0, 5, 10, 20, 30 and 60 min), stop solution (tolbutamide plus labetalol) was added to precipitate protein and mixed thoroughly. After centrifugation, an aliquot of supernatant was analyzed by LC-MS/MS. The percentage of formation of active agent was calculated at each time point.

[2] = In vivo rat PK (CSF/plasma and brain/plasma ratio of tafamidis); details: for Tafamidis CSF/plasma Ratio over 24 hrs (po): oral dosing of test compound
Text: For a compound provided herein to be an effective TTR stabilizer drug to halt and/or prevent the ocular and cerebral TTR amyloid deposition TTR amyloidosis, it has to be able to penetrate into the brain and CSF (surrogate for eye penetration) and deliver a sufficient amount of TTR stabilizer to stop TTR dissociation. A pharmacokinetic study in rat was used to evaluate the compounds. Male Sprague-Dawley (SD) rats (200-220 g weight) were acclimated for at least 2 to 3 days before being placed on study. All animals had access to certified rodent diet and water at libitum. Appropriate amount of the test compound was accurately weighed and mixed with appropriate volume of vehicle (such as DMSO/sterile water for iv dosing or 0.5% methylcellulose homogenous suspension or solution for oral administration or as a solution in a mixture NMP/PEG400/solutol/water) to administer a dose of 2, 5 or 10 mg/kg. For IV dosing the test compound was administered via tail vein or indwelling cannula. For oral dosing, the test compound was administered by oral gavage. Blood and CSF samples were collected at selected timepoints. Blood collection was performed from saphenous vein or tail vein of each animal into polypropylene tubes at each timepoint. All blood samples were transferred into EDTA-K2 tubes and centrifuged for 15 minutes at 4° C. for plasma collection. Plasma samples were kept at −80° C. until LC/MSMS analysis. CSF was collected from cisterna magna at each timepoint and quick frozen over dry ice and kept at −80° C. until LC/MSMS analysis. Brains were harvested immediately after the terminal bleeding (˜24 hrs post dosing). The blood of the brain was perfused with normal saline. The brain was quickly picked and placed into centrifuge tube. The weight of brain samples was recorded. 4-Fold homogenization solution (MeOH/15 mM PBS (1:2)) was added into the tube according to the weighed samples. The brain was homogenized using a Polytron (3 strokes or more until homogenous, each 30 seconds) on wet ice. The samples were quick frozen over dry ice and kept at −80° C. until LC/MSMS analysis. Using a LC-MSMS method for the quantitative determination of test compound in biological matrixes, amount of test compound and active agent were measured in plasma and CSF at selected timepoints post-dosing and in brain at 24 hrs post dosing. Plasma concentration versus time data was analyzed by non-compartmental approaches using the Phoenix WinNonlin 6.3 software program. As reference, an oral dose of 2 mg/kg of tafamidis gave a CSF to plasma ratio over 24 hrs around 0.01 and a brain to plasma ratio at 24 hrs around 0.02.
Results from rat PK (CSF/plasma ratio and brain/plasma ratio at 24 hrs) are shown in Table 4B and Table 4C, respectively.

[3] = tafamidis-treated FAP patients; cited from earlier work

Row | Formation of tafamidis at 60 min [1] | SMILES | other results
1 | A (A is <25%) | CN(C)CCNC(=O)c1ccc2nc(-c3cc(Cl)cc(Cl)c3)oc2c1 [Compound 7, 2-(3,5-dichlorophenyl)-N-(2-(dimethylamino)ethyl)benzo[d]oxazole-6-carboxamide] | Tafamidis CSF/plasma Ratio over 24 hrs (po) [2]: C (C is ≥0.02)
2 | A (A is <25%) | CC(Cc1ncc[nH]1)OC(=O)c1ccc2nc(-c3cc(Cl)cc(Cl)c3)oc2c1 (stereo not drawn) [Compound 34, 1-(1H-imidazol-2-yl)propan-2-yl 2-(3,5-dichlorophenyl)benzo-[d]oxazole-6-carboxylate] | Tafamidis CSF/plasma Ratio over 24 hrs (po) [2]: B (B is ≥0.015 to <0.02)
3 | A (A is <25%) | O=C(c1ccc2nc(-c3cc(Cl)cc(Cl)c3)oc2c1)N1CCCC(O)C1 (stereo not drawn) [Compound 83] | Tafamidis CSF/plasma Ratio over 24 hrs (po) [2]: A (A is <0.015)
4 | A (A is <25%) | O=C(c1ccc2nc(-c3cc(Cl)cc(Cl)c3)oc2c1)N1CCC(O)C1 (stereo not drawn) [Compound 84] | Tafamidis CSF/plasma Ratio over 24 hrs (po) [2]: A (A is <0.015)
5 | A (A is <25%) | O=C(c1ccc2nc(-c3cc(Cl)cc(Cl)c3)oc2c1)N1CC(O)C1 [Compound 93] | Tafamidis CSF/plasma Ratio over 24 hrs (po) [2]: A (A is <0.015)
6 | A (A is <25%) | O=C(N[C@H]1CC[C@H](O)CC1)c1ccc2nc(-c3cc(Cl)cc(Cl)c3)oc2c1 [Compound 97] | –
7 | A (A is <25%) | O=C(NC1CC2(CC(O)C2)C1)c1ccc2nc(-c3cc(Cl)cc(Cl)c3)oc2c1 (stereo not drawn) [Compound 98] | –
8 | A (A is <25%) | O=C(N[C@@H]1CCC[C@H](O)C1)c1ccc2nc(-c3cc(Cl)cc(Cl)c3)oc2c1 [Compound 99] | –
9 | A (A is <25%) | O=C(N[C@@H]1CCC[C@@H](O)C1)c1ccc2nc(-c3cc(Cl)cc(Cl)c3)oc2c1 [Compound 100] | –
10 | A (A is <25%) | CC1(O)CN(C(=O)c2ccc3nc(-c4cc(Cl)cc(Cl)c4)oc3c2)C1 [Compound 101] | Tafamidis CSF/plasma Ratio over 24 hrs (po) [2]: B (B is ≥0.015 to <0.02)
11 | A (A is <25%) | CC1(O)CCCN(C(=O)c2ccc3nc(-c4cc(Cl)cc(Cl)c4)oc3c2)C1 (stereo not drawn) [Compound 102] | –
12 | A (A is <25%) | CC1(O)CCN(C(=O)c2ccc3nc(-c4cc(Cl)cc(Cl)c4)oc3c2)CC1 [Compound 103] | –
13 | A (A is <25%) | O=C(c1ccc2nc(-c3cc(Cl)cc(Cl)c3)oc2c1)N1CCC(F)(F)C1 [Compound 104] | Tafamidis CSF/plasma Ratio over 24 hrs (po) [2]: A (A is <0.015)
14 | A (A is <25%) | O=C(c1ccc2nc(-c3cc(Cl)cc(Cl)c3)oc2c1)N1CCC2(CC(O)C2)C1 (stereo not drawn) [Compound 105] | –
15 | A (A is <25%) | CC1(O)CC2(CCN(C(=O)c3ccc4nc(-c5cc(Cl)cc(Cl)c5)oc4c3)C2)C1 (stereo not drawn) [Compound 106] | –
16 | A (A is <25%) | O=C(c1ccc2nc(-c3cc(Cl)cc(Cl)c3)oc2c1)N1CC2(CCC(O)C2)C1 (stereo not drawn) [Compound 107] | –
17 | A (A is <25%) | O=C(c1ccc2nc(-c3cc(Cl)cc(Cl)c3)oc2c1)N1C[C@@H]2[C@H](O)[C@@H]2C1 [Compound 108] | –
18 | A (A is <25%) | O=C(c1ccc2nc(-c3cc(Cl)cc(Cl)c3)oc2c1)N1C[C@@H]2[C@@H](O)[C@@H]2C1 [Compound 109] | –

Row | Formation of tafamidis at 60 min [1] | SMILES | other results
19 | A (A is <25%) | CC1(O)CC2(CN(C(=O)c3ccc4nc(-c5cc(Cl)cc(Cl)c5)oc4c3)C2)C1 [Compound 110] | –
20 | A (A is <25%) | CC1(O)CCC2(CN(C(=O)c3ccc4nc(-c5cc(Cl)cc(Cl)c5)oc4c3)C2)C1 (stereo not drawn) [Compound 111] | –
21 | A (A is <25%) | O=C(c1ccc2nc(-c3cc(Cl)cc(Cl)c3)oc2c1)N1CCC(F)C1 (stereo not drawn) [Compound 112] | –
22 | A (A is <25%) | O=C(c1ccc2nc(-c3cc(Cl)cc(Cl)c3)oc2c1)N1CC(F)(F)C[C@H]1CO [Compound 113] | –
23 | A (A is <25%) | O=C(c1ccc2nc(-c3cc(Cl)cc(Cl)c3)oc2c1)N1CC[C@@H](O)[C@@H](F)C1 [Compound 114] | –
24 | A (A is <25%) | O=C(c1ccc2nc(-c3cc(Cl)cc(Cl)c3)oc2c1)N1CCCCC(F)(F)C1 [Compound 115] | –
25 | A (A is <25%) | O=C(c1ccc2nc(-c3cc(Cl)cc(Cl)c3)oc2c1)N1CCC(O)C(F)(F)C1 (stereo not drawn) [Compound 116] | –
26 | A (A is <25%) | CC1(OC(=O)c2ccc3nc(-c4cc(Cl)cc(Cl)c4)oc3c2)CCNC1.Cl (stereo not drawn) [Compound 117] | –
27 | A (A is <25%) | O=C(c1ccc2nc(-c3cc(Cl)cc(Cl)c3)oc2c1)N1CCCC1C(F)(F)F (stereo not drawn) [Compound 118] | –
28 | A (A is <25%) | CC1(OC(=O)c2ccc3nc(-c4cc(Cl)cc(Cl)c4)oc3c2)CCN(CC(F)(F)F)C1 (stereo not drawn) [Compound 119] | –
29 | A (A is <25%) | CC1(OC(=O)c2ccc3nc(-c4cc(Cl)cc(Cl)c4)oc3c2)CCN(CCF)C1 (stereo not drawn) [Compound 120] | –
30 | A (A is <25%) | O=C(c1ccc2nc(-c3cc(Cl)cc(Cl)c3)oc2c1)N1C[C@@H](F)[C@@H](F)C1 [Compound 121] | –
31 | C (C is ≥50 to <75%) | CC1(OC(=O)c2ccc3nc(-c4cc(Cl)cc(Cl)c4)oc3c2)CCN(CC(F)F)C1 (stereo not drawn) [Compound 122] | –
32 | A (A is <25%) | CC1(OC(=O)c2ccc3nc(-c4cc(Cl)cc(Cl)c4)oc3c2)CCNCC1.Cl [Compound 123] | –
33 | A (A is <25%) | CC1(OC(=O)c2ccc3nc(-c4cc(Cl)cc(Cl)c4)oc3c2)CCN(CC(F)(F)F)CC1 [Compound 124] | –
34 | A (A is <25%) | O=C(c1ccc2nc(-c3cc(Cl)cc(Cl)c3)oc2c1)N1CC[C@H](O)[C@H](F)C1 [Compound 125] | –
35 | A (A is <25%) | CCN1CCC(C)(OC(=O)c2ccc3nc(-c4cc(Cl)cc(Cl)c4)oc3c2)CC1 [Compound 126] | –
36 | – | O=C(O)c1ccc2nc(-c3cc(Cl)cc(Cl)c3)oc2c1 [tafamidis] | Kp ([2]; male, Sprague-Dawley, CSF and plasma, oral dose of 2 mg/kg of tafamidis, reference, read-out: CSF to plasma ratio over 24 hrs): ~0.01; Kp at 24 h ([2]; male, Sprague-Dawley, brain and plasma, oral dose of 2 mg/kg of tafamidis, reference): ~0.02; tafamidis level in CSF, of that in plasma [3]: 2%; tafamidis level in vitreous, of that in plasma [3]: 0.5%; tafamidis/TTR stoichiometric ratio in plasma [3]: 2.4; tafamidis/TTR stoichiometric ratio in vitreous and CSF [3]: ≤ 1
